Legend:
[1] = target: BRM (Homo sapiens, UniProt P51531); experiment: ATPase catalytic activity assay (ADP-Glo), BRM; conditions: 30 nM BRM, 400 μM ATP; for IC50: BRM ATPase: IC50 (uM)
Procedure: The ATPase catalytic activity of BRM or BRG-1 was measured by an in vitro biochemical assay using ADP-Glo™ (Promega, V9102). The ADP-Glo™ kinase assay is performed in two steps once the reaction is complete. The first step is to deplete any unconsumed ATP in the reaction. The second step is to convert the reaction product ADP to ATP, which will be utilized by the luciferase to generate luminesce and be detected by a luminescence reader, such as Envision.
Then following addition of 5 μL of ADP-Glo™ Reagent provided in the kit, the reaction incubates at room temperature for 40 minutes. Then 10 μL of Kinase Detection Reagent provided in the kit is added to convert ADP to ATP, and the reaction incubates at room temperature for 60 minutes. Finally, luminescence measurement is collected with a plate-reading luminometer, such as Envision.

[2] = target: BRG-1 (Homo sapiens, UniProt P51532); experiment: ATPase catalytic activity assay (ADP-Glo), BRG-1; conditions: for Emax: 1 h, read-out: BRG1 Max % Inhibition, ADP-Glo, 30 nM BRG-1, 400 μM ATP
Chain of BRG-1 (P51532 whole entry): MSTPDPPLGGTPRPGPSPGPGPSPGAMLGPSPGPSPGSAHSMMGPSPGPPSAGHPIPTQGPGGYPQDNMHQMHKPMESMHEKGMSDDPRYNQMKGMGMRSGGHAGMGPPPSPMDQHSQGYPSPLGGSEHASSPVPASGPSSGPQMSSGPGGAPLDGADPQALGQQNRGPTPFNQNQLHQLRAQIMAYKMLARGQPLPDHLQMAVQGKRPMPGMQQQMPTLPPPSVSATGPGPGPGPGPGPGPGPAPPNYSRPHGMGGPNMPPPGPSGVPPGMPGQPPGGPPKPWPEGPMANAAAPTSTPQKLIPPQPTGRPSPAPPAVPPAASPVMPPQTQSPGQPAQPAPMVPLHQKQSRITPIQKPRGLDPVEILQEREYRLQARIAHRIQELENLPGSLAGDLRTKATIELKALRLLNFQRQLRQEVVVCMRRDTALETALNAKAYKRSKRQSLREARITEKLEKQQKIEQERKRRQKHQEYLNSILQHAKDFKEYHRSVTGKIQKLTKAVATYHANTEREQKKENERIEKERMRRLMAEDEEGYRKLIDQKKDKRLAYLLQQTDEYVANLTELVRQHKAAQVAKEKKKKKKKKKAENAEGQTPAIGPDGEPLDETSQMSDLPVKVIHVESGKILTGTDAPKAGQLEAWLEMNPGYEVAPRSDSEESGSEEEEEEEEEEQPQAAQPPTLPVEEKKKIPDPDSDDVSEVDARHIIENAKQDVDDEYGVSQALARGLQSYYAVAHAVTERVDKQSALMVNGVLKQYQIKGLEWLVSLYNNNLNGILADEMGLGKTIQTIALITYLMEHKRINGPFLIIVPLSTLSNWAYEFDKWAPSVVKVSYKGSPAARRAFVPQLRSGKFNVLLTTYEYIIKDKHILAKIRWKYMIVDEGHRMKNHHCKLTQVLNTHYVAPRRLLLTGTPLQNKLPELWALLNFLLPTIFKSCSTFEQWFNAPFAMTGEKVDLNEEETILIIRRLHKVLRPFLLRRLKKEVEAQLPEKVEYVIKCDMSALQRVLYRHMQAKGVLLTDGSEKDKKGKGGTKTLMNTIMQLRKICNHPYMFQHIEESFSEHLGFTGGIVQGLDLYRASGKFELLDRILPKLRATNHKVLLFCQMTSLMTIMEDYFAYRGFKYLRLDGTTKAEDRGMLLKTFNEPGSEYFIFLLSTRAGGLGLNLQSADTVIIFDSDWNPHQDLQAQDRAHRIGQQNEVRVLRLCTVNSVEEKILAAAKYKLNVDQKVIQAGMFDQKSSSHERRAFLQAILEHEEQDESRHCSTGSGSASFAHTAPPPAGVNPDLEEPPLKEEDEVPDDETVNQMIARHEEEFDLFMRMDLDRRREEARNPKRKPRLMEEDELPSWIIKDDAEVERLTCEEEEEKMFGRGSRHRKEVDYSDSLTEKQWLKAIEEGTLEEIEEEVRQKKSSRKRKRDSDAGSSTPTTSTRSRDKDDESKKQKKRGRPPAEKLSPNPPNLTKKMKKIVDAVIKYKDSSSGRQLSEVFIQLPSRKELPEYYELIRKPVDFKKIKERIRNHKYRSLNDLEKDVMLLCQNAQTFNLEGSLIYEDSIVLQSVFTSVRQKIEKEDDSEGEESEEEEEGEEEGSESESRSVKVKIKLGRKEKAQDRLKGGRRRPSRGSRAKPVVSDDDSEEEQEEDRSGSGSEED

Chain of BRM (P51531 whole entry): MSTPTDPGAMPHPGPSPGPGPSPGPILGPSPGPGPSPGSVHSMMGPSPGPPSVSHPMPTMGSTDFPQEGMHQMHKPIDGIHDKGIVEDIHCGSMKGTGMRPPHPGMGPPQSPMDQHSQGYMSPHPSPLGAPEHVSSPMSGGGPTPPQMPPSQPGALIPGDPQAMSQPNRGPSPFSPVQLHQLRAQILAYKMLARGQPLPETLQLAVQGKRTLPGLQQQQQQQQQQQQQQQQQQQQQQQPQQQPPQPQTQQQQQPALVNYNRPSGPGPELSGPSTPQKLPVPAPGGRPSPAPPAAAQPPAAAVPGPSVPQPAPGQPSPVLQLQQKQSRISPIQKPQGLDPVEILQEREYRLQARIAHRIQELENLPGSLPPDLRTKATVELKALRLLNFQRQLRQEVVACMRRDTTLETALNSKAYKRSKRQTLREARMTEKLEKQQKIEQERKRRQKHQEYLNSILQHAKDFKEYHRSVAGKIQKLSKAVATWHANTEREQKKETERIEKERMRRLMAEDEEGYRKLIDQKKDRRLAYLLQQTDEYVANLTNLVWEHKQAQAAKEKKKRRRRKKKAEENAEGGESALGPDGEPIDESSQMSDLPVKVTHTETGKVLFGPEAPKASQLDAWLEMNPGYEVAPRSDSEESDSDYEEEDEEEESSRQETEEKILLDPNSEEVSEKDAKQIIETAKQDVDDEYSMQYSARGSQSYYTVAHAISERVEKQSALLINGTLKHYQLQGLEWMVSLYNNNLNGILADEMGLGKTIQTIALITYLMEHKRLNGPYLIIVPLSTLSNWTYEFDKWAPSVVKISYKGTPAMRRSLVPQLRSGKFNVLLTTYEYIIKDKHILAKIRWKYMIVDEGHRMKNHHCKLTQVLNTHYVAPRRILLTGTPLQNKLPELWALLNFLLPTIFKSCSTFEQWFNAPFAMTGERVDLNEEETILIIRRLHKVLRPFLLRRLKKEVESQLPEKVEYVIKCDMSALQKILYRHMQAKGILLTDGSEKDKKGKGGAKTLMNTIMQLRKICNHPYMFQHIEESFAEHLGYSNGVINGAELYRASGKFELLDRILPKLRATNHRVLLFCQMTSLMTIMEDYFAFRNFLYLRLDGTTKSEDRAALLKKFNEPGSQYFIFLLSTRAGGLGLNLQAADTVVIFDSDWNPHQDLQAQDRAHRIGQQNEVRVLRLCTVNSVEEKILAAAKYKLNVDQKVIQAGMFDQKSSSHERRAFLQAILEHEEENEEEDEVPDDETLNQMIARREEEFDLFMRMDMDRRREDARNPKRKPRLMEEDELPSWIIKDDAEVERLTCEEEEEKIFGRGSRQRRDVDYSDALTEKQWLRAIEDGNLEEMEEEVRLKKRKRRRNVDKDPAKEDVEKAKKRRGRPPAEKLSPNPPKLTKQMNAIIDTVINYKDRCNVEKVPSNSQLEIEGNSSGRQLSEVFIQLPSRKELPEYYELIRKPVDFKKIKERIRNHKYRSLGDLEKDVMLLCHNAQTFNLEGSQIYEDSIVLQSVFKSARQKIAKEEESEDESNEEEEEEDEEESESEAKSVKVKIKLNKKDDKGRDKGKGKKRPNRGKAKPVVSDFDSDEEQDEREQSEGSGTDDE

Structure (SMILES)	BRM Max % Inhibition [1]	IC50 [1]	IC50 [2]	Emax [2]
CCC(C)(O)c1cccc(-c2ccc3cnc(CNC(=O)c4ccc5c(c4)[C@](C)(F)COC5)cc3n2)n1 (stereo partly shown) [Compound 205]	91%	0.1 to 0.5 µM	500 to 1000 nM	52%
C[C@@]1(C#N)COCc2ccc(C(=O)NCc3ncc4ccc(-c5cncc(C6CC6)n5)cc4n3)cc21 [Compound 206]	99%	< 0.1 µM	100 to 500 nM	85%
C[C@@]1(F)COCc2ccc(C(=O)NCc3cc4nc(-c5ccnc(N6CCC6)c5F)cnc4cn3)cc21 [Compound 207]	98%	< 0.1 µM	100 to 500 nM	89%
C[C@@]1(C#N)COCc2ncc(C(=O)NCc3cc4nc(-c5cccc(C6CC6)n5)ccc4cn3)cc21 [Compound 208]	98%	< 0.1 µM	100 to 500 nM	92%
CC1c2cc(CNC(=O)c3ccc4c(c3)[C@](C)(C#N)COC4)ncc2CCN1c1cncc(C2CC2)n1 (stereo partly shown) [Compound 209]	89%	0.1 to 0.5 µM	500 to 1000 nM	51%
C[C@@]1(C#N)COCc2ncc(C(=O)NCc3cc4nc(-c5cccc(N6CCC6)n5)ccc4cn3)cc21 [Compound 210]	99%	< 0.1 µM	100 to 500 nM	96%
[2H]C1([2H])OC[C@@](C)(F)c2cc(C(=O)NCc3cc4nc(-c5cncc(C6CC6)n5)ccc4cn3)cnc21 [Compound 211]	97%	0.1 to 0.5 µM	500 to 1000 nM	82%
C[C@@H](O)c1cccc(-c2ccc3cnc(CNC(=O)c4cnc5c(c4)[C@](C)(F)COC5)cc3n2)n1 [Compound 212]	89%	0.1 to 0.5 µM	> 1000 nM	39%
C[C@H](O)c1cccc(-c2ccc3cnc(CNC(=O)c4ccc5c(c4)[C@](C)(F)COC5)cc3n2)n1 [Compound 213]	97%	0.1 to 0.5 µM	500 to 1000 nM	63%
C[C@@]1(F)COCc2ccc(C(=O)NCc3cc4nc(-c5cccc(N6CCC6)n5)cnc4cn3)cc21 [Compound 214]	99%	< 0.1 µM	100 to 500 nM	93%
C[C@@]1(F)COCc2ncc(C(=O)NCc3cc4nc(-c5ccnc(N6CCC6)c5F)cnc4cn3)cc21 [Compound 215]	97%	< 0.1 µM	100 to 500 nM	90%
C[C@@]1(F)COCc2ncc(C(=O)NCc3cc4nc(-c5cccc(N6CCC6)n5)cnc4cn3)cc21 [Compound 216]	98%	< 0.1 µM	100 to 500 nM	90%
C[C@@]1(C#N)COCc2ccc(C(=O)NCc3cc4nc(-c5ccnc([C@H]6CC6(F)F)n5)ccc4cn3)cc21 [Compound 217]	98%	< 0.1 µM	500 to 1000 nM	79%
C[C@@]1(C#N)COCc2ccc(C(=O)NCc3cc4nc(-c5ccnc([C@@H]6CC6(F)F)n5)ccc4cn3)cc21 [Compound 218]	99%	< 0.1 µM	500 to 1000 nM	79%
C[C@@]1(C#N)COCc2ccc(C(=O)NCc3cc4cc(N5CCn6ncc(C(F)F)c6C5)ccc4nn3)cc21 [Compound 219]	94%	0.1 to 0.5 µM	500 to 1000 nM	57%
C[C@@]1(C#N)COCc2ccc(C(=O)NCc3cc4cc(N5CCn6ncc(C(F)F)c6C5)cnc4cn3)cc21 [Compound 220]	92%	0.1 to 0.5 µM	> 1000 nM	47%
C[C@@]1(C#N)COCc2ncc(C(=O)NCc3cc4nc(-c5cncc(C6CC6)n5)ccc4cn3)cc21 [Compound 221]	99%	< 0.1 µM	100 to 500 nM	88%
[2H]C1([2H])OCc2ncc(C(=O)NCc3cc4nc(-c5cncc(C6CC6)n5)ccc4cn3)cc2[C@]1(C)F [Compound 222]	98%	< 0.1 µM	500 to 1000 nM	83%
CN(C)c1cccc(-c2ccc3nnc(CNC(=O)c4ccc5c(c4)[C@](C)(C#N)COC5)cc3n2)n1 [Compound 223]	101%	< 0.1 µM	< 100 nM	101%
CN(C)c1cccc(-c2ccc3cnc(CNC(=O)c4cnc5c(c4)[C@](F)(C(F)F)COC5)cc3n2)n1 [Compound 224]	101%	< 0.1 µM	< 100 nM	100%
COc1nn(C2CC2)cc1-c1ccc2cnc(CNC(=O)c3ccc4c(c3)[C@](C)(C#N)COC4)cc2n1 [Compound 225]	92%	0.1 to 0.5 µM	500 to 1000 nM	72%
CN(C)c1cccc(-c2ccc3cnc(CNC(=O)c4cc(F)c5c(c4)[C@](F)(C(F)F)COC5)cc3n2)n1 [Compound 226]	98%	0.1 to 0.5 µM	100 to 500 nM	85%

Structure (SMILES)	BRM Max % Inhibition [1]	IC50 [1]	IC50 [2]	Emax [2]
CN(C)c1cccc(-c2ccc3cnc(CNC(=O)c4cnc5c(c4)[C@@](F)(C(F)F)COC5)cc3n2)n1 [Compound 227]	99%	< 0.1 µM	100 to 500 nM	94%
O=C(NCc1cc2nc(-c3cncc(C4CC4)n3)ccc2cn1)c1cnc2c(c1)[C@](F)(C(F)F)COC2 [Compound 228]	100%	< 0.1 µM	100 to 500 nM	98%
O=C(NCc1cc2nc(-c3cncc(C4CC4)n3)ccc2cn1)c1cnc2c(c1)[C@@](F)(C(F)F)COC2 [Compound 229]	100%	< 0.1 µM	100 to 500 nM	90%
C[C@@]1(C#N)COCc2ccc(C(=O)NCc3cc4c(cn3)CCN(c3ccc(=O)n(C5CC5)n3)C4)cc21 [Compound 230]	97%	0.1 to 0.5 µM	500 to 1000 nM	62%
Cc1cc(-c2ccc3cnc(CNC(=O)c4ccc5c(c4)[C@](C)(C#N)COC5)cc3n2)on1 [Compound 231]	91%	0.1 to 0.5 µM	> 1000 nM	46%
C[C@@]1(F)COCc2ccc(C(=O)NCc3cc4nc(-c5ccc(=O)n(C6CC6)n5)ccc4cn3)cc21 [Compound 233]	98%	0.1 to 0.5 µM	500 to 1000 nM	74%
C[C@@]1(C#N)COCc2ccc(C(=O)NCc3cc4c(nn3)CCN(c3cccc(N5CCC5)n3)C4)cc21 [Compound 234]	96%	0.1 to 0.5 µM	500 to 1000 nM	49%
C[C@@]1(C#N)COCc2ccc(C(=O)NCc3cc4nc(-c5ccnc(N6CCC6)c5F)sc4cn3)cc21 [Compound 235]	99%	< 0.1 µM	100 to 500 nM	72%
COc1nn(C2COC2)cc1-c1ccc2cnc(CNC(=O)c3ccc4c(c3)[C@](C)(C#N)COC4)cc2n1 [Compound 236]	100%	< 0.1 µM	100 to 500 nM	90%
O=C(NCc1cc2nc(-c3cncc(C4CC4)n3)ccc2cn1)c1cc(F)c2c(c1)[C@](F)(C(F)F)COC2 [Compound 237]	100%	< 0.1 µM	100 to 500 nM	92%
CN(C)c1cccc(-c2ccc3nnc(CNC(=O)c4ccc5c(c4)[C@](C)(F)COC5)cc3n2)n1 [Compound 238]	100%	< 0.1 µM	< 100 nM	96%
C[C@@]1(F)COCc2ccc(C(=O)NCc3cc4nc(-c5cccc(N6CCCC6=O)n5)ccc4nn3)cc21 [Compound 239]	101%	< 0.1 µM	100 to 500 nM	93%
C[C@@]1(F)COCc2ccc(C(=O)NCc3cc4nc(-c5cccc(C6CC6)n5)ccc4nn3)cc21 [Compound 240]	101%	< 0.1 µM	100 to 500 nM	89%
O=C(NCc1cc2nc(-c3cncc(C4CC4)n3)ccc2cn1)c1cnc2c(c1)[C@](F)(C(F)F)CCO2 [Compound 241]	97%	0.1 to 0.5 µM	500 to 1000 nM	63%
C[C@@]1(C#N)COCc2ccc(C(=O)NCc3cc4nc(-c5ccccc5)sc4nn3)cc21 [Compound 242]	94%	0.1 to 0.5 µM	500 to 1000 nM	51%
O=C(NCc1cc2nc(-c3cncc(C4CC4)n3)ccc2cn1)c1cnc2c(c1)[C@@](F)(C(F)F)CCO2 [Compound 243]	81%	0.1 to 0.5 µM	> 1000 nM	9%
C[C@@]1(F)COCc2ncc(C(=O)NCc3cc4nc(-c5ccnc(N6CCC6)n5)sc4cn3)cc21 [Compound 244]	88%	0.1 to 0.5 µM	> 1000 nM	25%
C[C@@]1(F)COCc2ccc(C(=O)NCc3cc4nc(-c5ccnc(N6CCC6)n5)sc4cn3)cc21 [Compound 245]	96%	0.1 to 0.5 µM	500 to 1000 nM	75%
O=C(NCc1cc2nc(-c3cncc(C4CC4)n3)ccc2cn1)c1cnc2c(c1)C(O)(C(F)F)COC2 (stereo not shown) [Compound 246]	88%	0.1 to 0.5 µM	> 1000 nM	23%
C[C@@]1(C#N)COCc2ccc(C(=O)NCc3cc4c(nn3)CCN(c3cncc(N5CCC5)n3)C4)cc21 [Compound 247]	93%	0.1 to 0.5 µM	> 1000 nM	65%
CN(C)c1cccc(-c2ccc3cnc(CNC(=O)c4ccc5c(c4)[C@](C)(F)COC5)cc3n2)n1 [Compound 248]	98%	< 0.1 µM	100 to 500 nM	100%

— patent US12441726B2, “Compounds and uses thereof” (Foghorn Therapeutics Inc., priority 2020, dated 2025)
